# Reference: patent US12655116B2, “Substituted isophthalic acid diamides” (Bayer Aktiengesellschaft, priority 2020, dated 2026)
# What was measured:
# ABUTH [1] = assay: Pre-emergence herbicidal action against ABUTH; type: in vivo, Abutilon theophrasti
# Method in brief: (§1)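 Visual rating at 3 weeks vs untreated pots; 0–100% scale, 100% = plants died. Treatment: aqueous WP/EC spray onto covering soil, 600–800 l/ha, 0.2% wetter, seeds in sandy loam.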
# ALOMY [2] = assay: Pre-emergence herbicidal action against ALOMY; type: in vivo, Alopecurus myosuroides; settings: 80 g/ha, pre-emergence, scored visually after 3 weeks vs untreated controls (100% = plants have died, 0% = like control plants)
# Method in brief: as §1
# AMARE [3] = assay: Pre-emergence herbicidal action against AMARE; type: in vivo, Amaranthus retroflexus
# Method in brief: as §1
# AVEFA = assay: Pre-emergence herbicidal action against AVEFA; type: in vivo, Avena fatua; settings: 80 g/ha, pre-emergence
# Method in brief: as §1
# ECHCG [4] = assay: Pre-emergence herbicidal action against ECHCG; type: in vivo, Echinochloa crus-galli
# Method in brief: as §1
# MATIN [5] = assay: Pre-emergence herbicidal action against MATIN; type: in vivo, Matricaria inodora
# Method in brief: as §1
# PHBPU [6] = assay: Pre-emergence herbicidal action against PHBPU; type: in vivo, Pharbitis purpurea; settings: dosage 80 g/ha
# Method in brief: as §1
# POLCO [7] = assay: Pre-emergence herbicidal action against POLCO; type: in vivo, Polygonum convolvulus; settings: dosage 80 g/ha
# Method in brief: as §1
# SETVI [8] = assay: Pre-emergence herbicidal action against SETVI; type: in vivo, Setaria viridis; settings: dosage 80 g/ha
# Method in brief: as §1
# VERPE [9] = assay: Pre-emergence herbicidal action against VERPE; type: in vivo, Veronica persica
# Method in brief: as §1
# VIOTR [10] = assay: Pre-emergence herbicidal action against VIOTR; type: in vivo, Viola tricolor
# Method in brief: as §1
# DIGSA [11] = assay: Pre-emergence herbicidal action against DIGSA; type: in vivo, Digitaria sanguinalis
# Method in brief: as §1
# ALOMY [12] = assay: Post-emergence herbicidal action against ALOMY; type: in vivo, Alopecurus myosuroides; settings: dosage 20 g/ha, visual assessment about 3 weeks after treatment vs untreated controls
# Method in brief: (§2)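 Weeds in sandy loam soil received a post-emergence spray at the one-leaf stage. Compounds were applied as WP or EC in water, 600 to 800 l/ha, with 0.2% wetting agent. Activity in % was judged visually after roughly 3 weeks against untreated plants.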
# ECHCG [13] = assay: Post-emergence herbicidal action against ECHCG; type: in vivo, Echinochloa crus-galli
# Method in brief: as §2
# MATIN [14] = assay: Post-emergence herbicidal action against MATIN; type: in vivo, Matricaria inodora
# Method in brief: as §2
# PHBPU [15] = assay: Post-emergence herbicidal action against PHBPU; type: in vivo, Pharbitis purpurea; settings: dosage 20 g/ha
# Method in brief: as §2
# POLCO [16] = assay: Post-emergence herbicidal action against POLCO; type: in vivo, Polygonum convolvulus; settings: dosage 20 g/ha
# Protocol: Seeds of monocotyledonous and dicotyledonous weed and crop plants are laid out in sandy loam soil in wood-fiber pots, covered with soil and cultivated in a greenhouse under good growth conditions. 2 to 3 weeks after sowing, the test plants are treated at the one-leaf stage. The compounds of the invention, formulated in the form of wettable powders (WP) or as emulsion concentrates (EC), are then sprayed onto the green parts of the plants in the form of an aqueous suspension or emulsion at a water application rate equivalent to 600 to 800 l/ha, with addition of 0.2% wetting agent. After the test plants have been left to stand in the greenhouse under optimal growth conditions for about 3 weeks, the action of the preparations is assessed visually in comparison to untreated controls (herbicidal action in percent (%): 100% activity=the plants have died, 0% activity=like control plants). […] The tables below illustrate, in an illustrative manner, the post-emergence herbicidal action of the compounds of the invention, the herbicidal activity being stated in percent.
# VERPE [17] = assay: Post-emergence herbicidal action against VERPE; type: in vivo, Veronica persica
# Method in brief: as §2
# VIOTR [18] = assay: Post-emergence herbicidal action against VIOTR; type: in vivo, Viola tricolor
# Method in brief: as §2
# ABUTH [19] = assay: Post-emergence herbicidal action against ABUTH; type: in vivo, Abutilon theophrasti; settings: visual assessment about 3 weeks after treatment vs untreated controls
# Method in brief: as §2
# AMARE [20] = assay: Post-emergence herbicidal action against AMARE; type: in vivo, Amaranthus retroflexus; settings: 20 g/ha, visual assessment about 3 weeks after treatment, 100% = plants have died, 0% = like control plants
# Method in brief: as §2
# SETVI [21] = assay: Post-emergence herbicidal action against SETVI; type: in vivo, Setaria viridis
# Method in brief: as §2
# DIGSA [22] = assay: Post-emergence herbicidal action against DIGSA; type: in vivo, Digitaria sanguinalis; settings: Digitaria sanguinalis, 504 h
# Method in brief: as §2
# [23] = 80 g/ha, scored visually after 3 weeks vs untreated controls (100% = plants have died, 0% = like control plants)
# [24] = dosage 20 g/ha, scored visually after 3 weeks vs untreated controls, 100% = plants have died, 0% = like control plants
# [25] = 20 g/ha, scored visually after 3 weeks vs untreated controls, 100% = plants have died, 0% = like control plants
# [26] = Tripleurospermum inodorum, 504 h, dosage 20 g/ha
structure (smiles),measurement,setting,value
CC(NC(=O)c1c(Br)ccc(C(=O)Nc2nnnn2C)c1Cl)C1CC1 (stereo not drawn) [Example 1-183],Pre-emergence action against ABUTH (herbicidal activity),ABUTH [1]; [23],100%
same,Pre-emergence action against ABUTH (herbicidal activity in percent),ABUTH [1]; [24],100%
same,Pre-emergence action against ALOMY (herbicidal activity),ALOMY [2],90%
same,Pre-emergence action against AMARE in %,AMARE [3]; [25],100%
same,Pre-emergence action against AMARE in %,AMARE [3]; [23],100%
same,Pre-emergence action against AVEFA in %,AVEFA,90%
same,Pre-emergence action against ECHCG in %,ECHCG [4]; 20 g/ha,90%
same,Pre-emergence action against ECHCG in %,ECHCG [4]; 80 g/ha,100%
same,Pre-emergence action against MATIN in %,MATIN [5]; dosage 20 g/ha,90%
same,Pre-emergence action against MATIN in %,MATIN [5]; dosage 80 g/ha,100%
same,Pre-emergence action against PHBPU in %,PHBPU [6],90%
same,Pre-emergence action against POLCO in %,POLCO [7],80%
same,Pre-emergence action against SETVI in %,SETVI [8],100%
same,Pre-emergence action against VERPE in %,VERPE [9]; dosage 20 g/ha,90%
same,Pre-emergence action against VERPE in %,VERPE [9]; dosage 80 g/ha,100%
same,Pre-emergence action against VIOTR in %,VIOTR [10]; dosage 20 g/ha,100%
same,Pre-emergence action against VIOTR in %,VIOTR [10]; dosage 80 g/ha,100%
same,Pre-emergence action against DIGSA in %,DIGSA [11]; dosage 20 g/ha,100%
same,Pre-emergence action against DIGSA in %,DIGSA [11]; dosage 80 g/ha,100%
same,Post-emergence action against ALOMY in %,ALOMY [12],90%
same,Post-emergence action against ECHCG in %,ECHCG [13]; dosage 20 g/ha,100%
same,Post-emergence action against MATIN in %,MATIN [14]; dosage 5 g/ha,90%
same,Post-emergence action against MATIN in %,MATIN [14]; dosage 20 g/ha,90%
same,Post-emergence action against PHBPU in %,PHBPU [15],80%
same,Post-emergence action against POLCO in %,POLCO [16],100%
same,Post-emergence action against VERPE in %,VERPE [17]; 5 g/ha,80%
same,Post-emergence action against VERPE in %,VERPE [17]; 20 g/ha,90%
same,Post-emergence action against VIOTR in %,VIOTR [18]; 5 g/ha,90%
same,Post-emergence action against VIOTR in %,VIOTR [18]; 20 g/ha,90%
Cn1nnnc1NC(=O)c1ccc(C(F)F)c(C(=O)NC2CC2)c1C1CC1 [Example 1-306],pest or weed control at 80 g/ha,"ABUTH [1]; Abutilon theophrasti, 504 h, 80 g/ha, scored visually after 3 weeks vs untreated controls (100% = plants have died, 0% = like control plants)",100%
same,pest or weed control at 20 g/ha,"ABUTH [1]; Abutilon theophrasti, 504 h, dosage 20 g/ha, scored visually after 3 weeks vs untreated controls, 100% = plants have died, 0% = like control plants, read-out: Pre-emergence action against ABUTH (herbicidal activity in percent)",100%
same,pest or weed control at 20 g/ha,"AMARE [3]; Amaranthus retroflexus, 504 h, 20 g/ha, scored visually after 3 weeks vs untreated controls, 100% = plants have died, 0% = like control plants",100%
same,pest or weed control at 80 g/ha,"AMARE [3]; Amaranthus retroflexus, 504 h, 80 g/ha, scored visually after 3 weeks vs untreated controls, 100% = plants have died, 0% = like control plants",100%
same,pest or weed control at 80 g/ha,"AVEFA; Avena fatua, 504 h",80%
same,pest or weed control at 80 g/ha,"ECHCG [4]; Echinochloa crus-galli, 504 h, 80 g/ha",100%
same,pest or weed control at 20 g/ha,MATIN [5]; [26],100%
same,pest or weed control at 80 g/ha,"MATIN [5]; Tripleurospermum inodorum, 504 h, dosage 80 g/ha",100%
same,pest or weed control at 80 g/ha,"PHBPU [6]; Ipomoea purpurea, 504 h",90%
same,pest or weed control at 80 g/ha,"POLCO [7]; Fallopia convolvulus, 504 h",90%
same,pest or weed control at 80 g/ha,"SETVI [8]; Setaria viridis, 504 h",100%
same,pest or weed control at 80 g/ha,"VERPE [9]; Veronica persica, 504 h, dosage 80 g/ha",90%
same,pest or weed control at 20 g/ha,"VIOTR [10]; Viola tricolor, 504 h, dosage 20 g/ha",100%
same,pest or weed control at 80 g/ha,"VIOTR [10]; Viola tricolor, 504 h, dosage 80 g/ha",100%
same,pest or weed control at 20 g/ha,"DIGSA [11]; Digitaria sanguinalis, 504 h, dosage 20 g/ha",100%
same,pest or weed control at 80 g/ha,"DIGSA [11]; Digitaria sanguinalis, 504 h, dosage 80 g/ha",100%
same,pest or weed control at 5 g/ha,"ABUTH [19]; Abutilon theophrasti, 504 h, dosage 5 g/ha",80%
same,pest or weed control at 20 g/ha,"ABUTH [19]; Abutilon theophrasti, 504 h, dosage 20 g/ha",80%
same,pest or weed control at 20 g/ha,"AMARE [20]; Amaranthus retroflexus, 504 h",100%
same,pest or weed control at 5 g/ha,"ECHCG [13]; Echinochloa crus-galli, 504 h, dosage 5 g/ha",90%
same,pest or weed control at 20 g/ha,"ECHCG [13]; Echinochloa crus-galli, 504 h, dosage 20 g/ha",90%
same,pest or weed control at 5 g/ha,"MATIN [14]; Tripleurospermum inodorum, 504 h, dosage 5 g/ha",90%
same,pest or weed control at 20 g/ha,MATIN [14]; [26],90%
same,pest or weed control at 20 g/ha,"POLCO [16]; Fallopia convolvulus, 504 h",80%
same,pest or weed control at 5 g/ha,"SETVI [21]; Setaria viridis, 504 h, dosage 5 g/ha",90%
same,pest or weed control at 20 g/ha,"SETVI [21]; Setaria viridis, 504 h, dosage 20 g/ha",90%
same,pest or weed control at 20 g/ha,"VERPE [17]; Veronica persica, 504 h, 20 g/ha",90%
same,pest or weed control at 20 g/ha,"VIOTR [18]; Viola tricolor, 504 h, 20 g/ha",90%
same,pest or weed control at 5 g/ha,DIGSA [22]; 5 g/ha,90%
same,pest or weed control at 20 g/ha,DIGSA [22]; 20 g/ha,90%
CCn1nnnc1NC(=O)c1ccc(C(F)F)c(C(=O)NC)c1C1CC1 [Example 2-304],Pre-emergence action against ABUTH (herbicidal activity),ABUTH [1]; [23],100%
same,Pre-emergence action against ABUTH (herbicidal activity in percent),ABUTH [1]; [24],100%
same,Pre-emergence action against AMARE in %,AMARE [3]; [25],100%
same,Pre-emergence action against AMARE in %,AMARE [3]; [23],100%
same,Pre-emergence action against ECHCG in %,ECHCG [4]; 80 g/ha,90%
same,Pre-emergence action against MATIN in %,MATIN [5]; dosage 20 g/ha,90%
same,Pre-emergence action against MATIN in %,MATIN [5]; dosage 80 g/ha,100%
same,Pre-emergence action against PHBPU in %,PHBPU [6],90%
same,Pre-emergence action against POLCO in %,POLCO [7],80%
same,Pre-emergence action against SETVI in %,SETVI [8],90%
same,Pre-emergence action against VERPE in %,VERPE [9]; dosage 80 g/ha,100%
same,Pre-emergence action against VIOTR in %,VIOTR [10]; dosage 20 g/ha,90%
same,Pre-emergence action against VIOTR in %,VIOTR [10]; dosage 80 g/ha,100%
same,Pre-emergence action against DIGSA in %,DIGSA [11]; dosage 20 g/ha,90%
same,Pre-emergence action against DIGSA in %,DIGSA [11]; dosage 80 g/ha,100%
same,Post-emergence action against ABUTH in %,ABUTH [19]; dosage 5 g/ha,90%
same,Post-emergence action against ABUTH in %,ABUTH [19]; dosage 20 g/ha,90%
same,Post-emergence action at 20 g/ha against AMARE in %,AMARE [20],100%
same,Post-emergence action against ECHCG in %,ECHCG [13]; dosage 20 g/ha,80%
same,Post-emergence action against MATIN in %,MATIN [14]; dosage 5 g/ha,90%
same,Post-emergence action against MATIN in %,MATIN [14]; dosage 20 g/ha,90%
same,Post-emergence action against PHBPU in %,PHBPU [15],90%
same,Post-emergence action against POLCO in %,POLCO [16],80%
same,Post-emergence action against SETVI in %,SETVI [21]; dosage 5 g/ha,80%
same,Post-emergence action against SETVI in %,SETVI [21]; dosage 20 g/ha,80%
same,Post-emergence action against VERPE in %,VERPE [17]; 20 g/ha,90%
same,Post-emergence action against VIOTR in %,VIOTR [18]; 5 g/ha,80%
same,Post-emergence action against VIOTR in %,VIOTR [18]; 20 g/ha,90%
